Key:
Format in all cases: cell-based, Chinese Hamster
[1] = system: CHO-K1 cells; assay: Shake flask batch growth and biochemical profiles of CHO-K1 in maltose or glucose medium
Procedure: Viable cell density and culture viability were determined by Trypan blue dye exclusion method using Vi-Cell XR Cell Viability Analyzer (Beckman Coulter, Brea, CA) according to manufacturer's instructions. For biochemical and other cell culture parameter analyses, 1 ml of culture sample was centrifuged at 8000 g for 10 minutes to obtain clarified supernatant. Concentrations of ammonium, glutamine, glucose and lactate were analyzed by the BioProfile 100 Plus (Nova Biomedical, Waltham, MA). Osmolality was measured using a vapor pressure osmometer (Vapro 5520, Wescor, Logan, UT), according to manufacturer's instructions. Maltose concentration was quantified using Maltose Colorimetric/Fluorometric Assay Kit (Biovision, Milpitas, CA), according to manufacturer's instructions. […] Cells were cultivated in single-use Erlenmeyer flasks (Corning), with a cell seeding density of 0.3×10^6 cells/ml in duplicates. Cell culture samples were collected and analyzed daily throughout the duration of the growth profile experiment until culture viabilities fell below 50%. When necessary, culture supernatant samples were stored at -20° C. for further analysis. […]0)=μt Equation 1

[2] = system: CHO-DG44 cells; assay: Disaccharides to support growth of CHO-DG44 cells in HyQ PF-CHO; conditions: 10 g/l sugar, 22 days
Excerpt: In (A) CHO-K1 cells were cultivated in a serum-free protein-free cell culture medium, HyQ PF-CHO, with 3.6 g/l of different sugars (maltose, sucrose, lactose, trehalose or glucose) as carbohydrate source. The viable cell densities (lined markers) and culture viabilities (marker only) of these cultures at the beginning and end of each passage over a period of 74 days were plotted. Cultures with sucrose, lactose or trehalose were terminated on Day 31 due to the decreased culture viabilities and reduced viable cell densities. The experiment was repeated with a seeding cell density of 1.0×10^6 cells/ml to obtain similar results. In (B) CHO-DG44 cells were cultivated with a seeding cell density of 1.0×10^6 cells/ml in a serum-free protein-free cell culture medium, HyQ PF-CHO, with 10 g/l of different sugars (maltose, sucrose, lactose, trehalose or glucose) as carbohydrate source. The viable cell densities (lined markers) and cell viabilities (marker only) of these cultures at the beginning and end of each passage over a period of 22 days were plotted. In (C) HEK293 cells were cultivated with a seeding cell density of 1.0×10^6 cells/ml in a protein-free chemically defined cell culture medium, PFCDM, with 10 g/l of different sugars (maltose, sucrose, lactose, trehalose or glucose) as carbohydrate source. The viable cell densities (lined markers) and cell viabilities (marker only) of these cultures at the beginning and end of each passage over a period of 22 days were plotted. Cultures with sucrose, lactose or trehalose were terminated on Day 14 due to the decreased culture viabilities and reduced viable cell densities.
To determine whether the same approach can be applied on other CHO cell lines, the use of disaccharides to support the growth of CHO-DG44 cells was evaluated. These cells were cultivated with 10 g/l of maltose, sucrose, lactose, trehalose or glucose as energy source in a serum-free protein-free cell culture medium HyQ PF-CHO. The viable cell densities and culture viabilities of these cultures at the beginning and end of each passage over a period of 22 days are shown in FIG. 1B.

[3] = system: SH87 cells; assay: Specific maltose consumption rate, Monod model; conditions: non-linear regression
Procedure: Specific substrate consumption rate (qs) between culture times t1 and t2 was determined by plotting substrate concentration (S) vs IVCD according to Equation 4. −qs=(St2−St1)/IVCD St2=−qs×IVCD+St1 Equation 4
Specific substrate consumption rate (qs) was fitted into a Monod model according to Equation 5, where qs_max is the maximum specific substrate consumption rate, S is the substrate concentration, and Ks is the affinity constant. qs=(qs_max×S)/(Ks+S) Equation 5
To characterize the maltose metabolism in the maltose supplemented cultures, the specific maltose consumption rates were obtained from plots of maltose concentrations against cumulative integral viable cell densities (IVCD) according to Equation 4. […] Comparing with published specific monosaccharide consumption rates using 3.6 g/l of monosaccharides (Altamirano et al., 2000), the maximum specific maltose consumption rate determined here is similar to the specific consumption rates of fructose (0.21 ng/cell/day) and galactose (0.21 ng/cell/day) while being lower than the measured specific consumption rates of glucose (0.76 ng/cell/day) and mannose (0.88 ng/cell/day). […] While the present inventors noted that these parameters can be more accurately determined in continuous cultures, it may be practically challenging at low maltose concentrations since growth rates will be low.

[4] = system: CHO-K1 cells; assay: CHO-K1 cells in PFCDM with increasing concentration of maltose; conditions: maltose-adapted CHO-K1, PFCDM, maltose 10 g/l to 40 g/l
Excerpt: CHO-K1 cells adapted to PFCDM with 10 g/L of maltose was cultivated in PFCDM with 10, 20, 30 and 40 g/L maltose in batch shake flask cultures. The cultures were monitored till culture viabilities were lower than 50%, to obtain their (A) Viable cell densities (lined marker) and culture viabilities (marker only), and (B) Osmolality, (C) Glucose, (D) Lactate, (E) Glutamine and (F) Ammonium profiles. […] Even with the higher maltose concentration, lactate concentration was kept at a low level till viability started to drop on Day 6.
Examining glutamine consumption, while this was slower in the maltose culture compared to the glucose culture (FIG. 2D), it was likely due to the slower growth of the maltose culture. […] This hypothesis is supported by the ammonium production profiles: while the specific ammonium production rate was initially similar for both cultures, that for the glucose culture slowed considerably from Day 2 (FIG. 2G) to attain a final ammonium concentration of 0.14 g/l (FIG. 2E), whereas the specific ammonium production rate of the maltose culture continued at a similar rate till Day 5 to attain a higher final ammonium concentration of 0.20 g/1. […]

[5] = CHO-K1 maltose culture, 3.6 g/l

In the case of `OC[C@H]1O[C@H](O[C@H]2[C@H](O)[C@@H](O)[C@H](O)O[C@@H]2CO)[C@H](O)[C@@H](O)[C@@H]1O` [maltose], the “culture viabilities maintained over a longer period of time compared to glucose” value ([1]; CHO-K1, 3.6 g/l sugar) was “greater than 80%”, the “day on which glutamine was completely utilized” value ([1]; CHO-K1, 3.6 g/l sugar) was 5 days and the final ammonium concentration ([1]; CHO-K1, 3.6 g/l sugar) was 0.20 g/L. The doubling time ([1]; CHO-K1, 3.6 g/l sugar, viable cell density data till Day 4) was 53.7 h, the “maximum viable cell density” value ([1]; CHO-K1, HyQ PF-CHO, 3.6 g/l sugar, initial 0.3×10^6 cells/ml, maltose Day 7, glucose Day 6) was 1.4×10^6 cells/ml and the “glucose in the culture medium” value [1, 5] was “not detectable”. The lactate production [1, 5] was “lack of lactate production”, the “proliferation in serum-free protein-free culture medium with the sugar as sugar source” value [2] was “can also proliferate” and the “affinity constant (Ks)” value [3] was 7.03 g/L. The “maximum specific maltose consumption rate (qs_max)” value [3] was 0.257 ng/cell/day and the “proliferation with increased concentrations of maltose” value [4] was “proliferated faster”.
